According to patent publication US12162857B2, “Antiviral compounds” (priority 2022, dated 2024):

These compounds were tested on HMPV A2 TN/94-49 (assay: HMPV antiviral assay: LLC-MK2 cells, ATP-Lite readout). Settings: LLC-MK2, 168 h, MOI 0.005, 7 days incubation.
Format: cell-based
Procedure: In vitro HMPV antiviral activity was evaluated using the clinical isolate A2 strain TN 94-49 and LLC-MK2 cells (ATCC #CCL-7), an immortalized kidney epithelial cell line from Macaca mulatta. Compounds were resuspended in dimethyl sulfoxide (DMSO) at 10 mM, serially diluted and added to a 384-well source plate. Subsequently, the compounds were diluted and transferred onto 384-well assay plates using the Echo-650 automated liquid handling system (Beckman Coulter, Indiana). The test compounds were assessed in duplicate at a top concentration of 2 μM followed by 2.5-fold serial dilutions to give a total of 10 concentration points. DMSO control wells were also included on the assay plates and were either infected or not, acting as positive and negative controls. A2 TN 94-49 virus infections were performed in-suspension with LLC-MK2 cells. The cells were washed twice with PBS and removed from the cell-culture flask with 0.25% trypsin-EDTA (Thermo Fisher Scientific, MA). The trypsin-EDTA was inactivated by resuspending in 2% fetal bovine serum (FBS) and OptiMEM (ThermoFisher Scientific, MA) containing 1% penicillin-streptomycin. Cells were pelleted by centrifuging for 5 minutes at 800 rpm, the supernatant was removed, and cells were re-suspended and washed in PBS plus 100 μg/mL CaCl2). This step was performed twice. Cells were then re-suspended in serum-free (SF)-OptiMEM containing 4 μg/mL TPCK-Trypsin (Sigma Aldrich, MO), 1% penicillin-streptomycin (ThermoFisher Scientific, MA) and 100 μg/mL CaCl2). Cells were counted and seeded at a density of 5,000 cells/well, 12.5 μL/well. Virus infections were done at a multiplicity of infection (MOI) of 0.005 with 12.5 μL added per well. Virus infections were performed in infection media which contained SF-OptiMEM, 100 μg/mL CaCl2) and 1% penicillin-streptomycin. HMPV viral stocks are suspended in infection media+5% glycerol, thus an equal volume of infection media+5% glycerol was added to uninfected wells to equalize the final % glycerol across all wells of the assay plate. The final concentration of TPCK-trypsin was 2 μg/mL. The assay plates were incubated at 37° C., 5% CO2 for 7 days. After 7 days incubation, 12.5 μL of ATP-Lite (PerkinElmer, MA) was added to each well and the raw luminescence values were determined using the Envision 2104 (Perkin Elmer, MA). The average of the raw luminescence values for the cells and virus only positive control wells was subtracted from all conditions tested and the percent cell health was determined by dividing these values by the average of the cells only negative control wells. EC50 values were then calculated by non-linear regression using a four-parameter curve logistic equation. The curve fit model employed was XLFit Dose Response One Site Model 200: y=(A+(B/(1+((x/C)^D)))), where A is the minimum y value, B is the maximum y value, C is the log EC50 value, and D is the slope factor. […] EC50 ranges are as follows: A<1 μM; B>1 μM.

| SMILES | EC50 [nM] |
| --- | --- |
| CC(C)(O)c1cc([C@@](O)(CNC(=O)c2cc(Cl)c3nn(C4CC4)cc3c2)c2cccc(F)c2)nc(-c2cc(F)c(F)cc2F)c1F [Example 97] | < 1000 |
| COc1cc(C(=O)NC[C@@](O)(c2ccccc2)c2cc(C(C)(C)O)c(Cl)c(-c3cccc(Cl)c3Cl)n2)cc2sc(C)nc12 [Example 139] | < 1000 |
| CC(C)(O)c1cc([C@@](O)(CNC(=O)c2cc(Cl)c3nn(C4CC4)cc3c2)c2cccc(F)c2)nc(-c2cccc(Cl)c2Cl)c1F [Example 100] | > 1000 |
| COc1cc(C(=O)NC[C@@](O)(c2cccc(F)c2)c2cc(C(C)(C)O)c(F)c(-c3ccc4c(c3Cl)OC(F)(F)O4)n2)cc2cn(C(F)F)nc12 [Example 111] | < 1000 |
| COc1cc(C(=O)NC[C@@](O)(c2cccc(F)c2)c2cc(C(C)(C)O)c(F)c(-c3cccc(Cl)c3Cl)n2)cc2cn(C(F)F)nc12 [Example 99] | < 1000 |
| COc1cc(C(=O)NC[C@@](O)(c2ccccc2)c2cc(C(C)(C)O)c(F)c(-c3cccc(Cl)c3Cl)n2)cc2cc(C3CC3)nn12 [Example 81] | < 1000 |
| COc1cc(C(=O)NC[C@](O)(c2ccc(F)c(-c3cc(Cl)c(F)cc3F)n2)C2CC2)cc2cn(C3CC3)nc12 [Example 171] | > 1000 |
| COc1cc(C(=O)NC[C@@](O)(c2cccc(F)c2)c2cc(C(C)(C)O)c(F)c(-c3cc(Cl)c(F)cc3F)n2)cc2cc(C3CC3)nn12 [Example 93] | < 1000 |
| COc1cc(C(=O)NC[C@](O)(c2cc(C(C)(C)F)c(F)c(-c3cc(Cl)c(F)cc3F)n2)C2CC2)cc2cc(C3CC3)nn12 [Example 178] | > 1000 |
| COc1cc(C(=O)NC[C@](O)(c2cc(C3(O)COC3)c(F)c(-c3cc(Cl)c(F)cc3F)n2)C2CC2)cc2cn(C3(F)CC3)nc12 [Example 168] | > 1000 |
| COc1cc(C(=O)NC[C@@](O)(c2ccccc2)c2cc(C(C)(C)C(N)=O)c(F)c(-c3cc(Cl)c(F)cc3F)n2)cc2cn(C3CC3)nc12 [Example 160] | < 1000 |
| COc1cc(C(=O)NC[C@@](O)(c2ccccc2)c2cc(C(C)(C)O)c(F)c(-c3cccc(Cl)c3Cl)n2)cc2cn(C(F)F)nc12 [Example 80] | < 1000 |
| COc1cc(C(=O)NC[C@@](O)(c2cccc(F)c2)c2cc(C(C)(C)O)c(F)c(-c3ccc4c(c3Cl)OC(F)(F)O4)n2)cc2cn(C3CC3)nc12 [Example 109] | < 1000 |
| COc1cc(C(=O)NC[C@@](O)(c2ccccc2)c2cc(C(C)(C)O)c(F)c(-c3ccc(F)c(Cl)c3Cl)n2)cc2cc(C3CC3)nn12 [Example 69] | < 1000 |
| COc1cc(C(=O)NC[C@@](O)(c2cccc(F)c2)c2cc(C(C)(C)O)c(F)c(-c3cc(Cl)c(F)cc3F)n2)cc2cn(C3CC3)nc12 [Example 90] | < 1000 |
| COc1cc(C(=O)NC[C@](O)(c2cc(C(C)(C)O)c(F)c(-c3cc(Cl)c(F)cc3F)n2)c2cccs2)cc2cn(C(F)F)nc12 [Example 114] | < 1000 |
| COc1cc(C(=O)NC[C@@](O)(c2cccc(F)c2)c2cc(C(C)(C)O)c(F)c(-c3cc(F)c(F)cc3F)n2)cc2cn(C3CC3)nc12 [Example 96] | < 1000 |
| COc1cc(C(=O)NC[C@@](O)(c2ccccc2)c2cc(C(C)(C)O)c(F)c(-c3ccc(F)c(Cl)c3F)n2)cc2cn(C3(F)CC3)nc12 [Example 124] | < 1000 |
| COc1cc(C(=O)NC[C@](O)(c2cc(C(C)(C)O)c(F)c(-c3cc(Cl)c(F)cc3F)n2)c2cccs2)cc2sc(C)nc12 [Example 115] | < 1000 |
| COc1cc(C(=O)NC[C@@](O)(c2ccccc2)c2cc(C(C)(C)O)c(F)c(-c3ccc4c(c3Cl)OC(F)(F)O4)n2)cc2sc(C)nc12 [Example 73] | < 1000 |
| COc1cc(C(=O)NC[C@@](O)(c2ccccc2)c2cc(C(C)(C)O)c(F)c(-c3ccc(F)c(Cl)c3Cl)n2)cc2cn(C(F)F)nc12 [Example 70] | < 1000 |

| SMILES | EC50 [nM] |
| --- | --- |
| COc1cc(C(=O)NC[C@@](O)(c2cccc(F)c2)c2cc(C(C)(C)O)c(F)c(-c3ccc(F)c(Cl)c3Cl)n2)cc2cn(C(F)F)nc12 [Example 104] | < 1000 |
| COc1cc(C(=O)NC[C@@](O)(c2ccccc2)c2cc(C(=O)Nc3ncco3)c(F)c(-c3cc(Cl)c(F)cc3F)n2)cc2cn(C3CC3)nc12 [Example 191] | > 1000 |
| CCC(O)(CC)c1cc([C@@](O)(CNC(=O)c2cc(OC)c3nn(C(F)F)cc3c2)c2ccccc2)nc(-c2cc(Cl)c(F)cc2F)c1F [Example 117] | > 1000 |
| COc1cc(C(=O)NC[C@@](O)(c2ccccc2)c2cc(C(C)(C)O)c(F)c(-c3ccc(F)c(Cl)c3F)n2)cc2cn(C(F)F)nc12 [Example 122] | < 1000 |
| COc1cc(C(=O)NC[C@@](O)(c2ccccc2)c2cc(C(C)(C)O)cc(-c3ccc(F)c(Cl)c3Cl)n2)cc2sc(C)nc12 [Example 151] | < 1000 |
| COc1cc(C(=O)NC[C@@](O)(c2ccccc2)c2nc(-c3cc(Cl)c(F)cc3F)c(F)c(C(C)(C)O)c2F)cc2cc(C3CC3)nn12 [Example 129] | < 1000 |
| COc1cc(C(=O)NC[C@](O)(c2ccc(F)c(-c3cc(F)c(F)cc3F)n2)C2CC2)cc2cn(C3CC3)nc12 [Example 172] | > 1000 |
| COc1cc(C(=O)NC[C@](O)(c2cc(C(C)(C)O)c(F)c(-c3ccc(F)c(Cl)c3F)n2)C2CC2)cc2cn(C3CC3)nc12 [Example 119] | < 1000 |
| COc1cc(C(=O)NC[C@@](O)(c2ccccc2)c2nc(-c3cc(Cl)c(F)cc3F)c(F)c(C(C)(C)O)c2F)cc2cn(C(F)F)nc12 [Example 128] | < 1000 |
| COc1cc(C(=O)NC[C@@](O)(c2ccccc2)c2cc(C(C)(C)O)cc(-c3cccc(Cl)c3Cl)n2)cc2sc(C)nc12 [Example 147] | < 1000 |
| COc1cc(C(=O)NC[C@@](O)(c2ccccc2)c2cc(C(C)(C)O)cc(-c3ccc4c(c3Cl)OC(F)(F)O4)n2)cc2cn(C(F)F)nc12 [Example 158] | < 1000 |
| CC(C)(O)c1cc([C@@](O)(CNC(=O)c2cc(Cl)c3nn(C4CC4)cc3c2)c2ccccc2)nc(-c2cccc(Cl)c2Cl)c1Cl [Example 141] | > 1000 |
| COc1cc(C(=O)NC[C@](O)(c2cc(C3(O)COC3)c(F)c(-c3ccc(F)cc3)n2)C2CC2)cc2cn(C3CC3)nc12 [Example 166] | > 1000 |
| COc1cc(C(=O)NC[C@@](O)(c2cccc(F)c2)c2cc(C(C)(C)O)c(F)c(-c3cc(Cl)c(F)cc3F)n2)cc2cn(C(F)F)nc12 [Example 92] | < 1000 |
| COc1cc(C(=O)NC[C@](O)(c2cc(C(C)(C)O)c(F)c(-c3cc(Cl)c(F)cc3F)n2)C2CC2)cc2cn(C3(F)CC3)nc12 [Example 53] | < 1000 |
| COc1cc(C(=O)NC[C@@](O)(c2cccc(F)c2)c2cc(C(C)(C)O)c(F)c(-c3ccc(F)c(Cl)c3Cl)n2)cc2cn(C3CC3)nc12 [Example 103] | < 1000 |
| COc1cc(C(=O)NC[C@@](O)(c2cccc(F)c2)c2cc(C(C)(C)O)c(F)c(-c3cc(F)c(F)cc3F)n2)cc2cc(C3CC3)nn12 [Example 95] | < 1000 |
| COc1cc(C(=O)NC[C@@](O)(c2cccc(F)c2)c2cc(C(C)(C)O)c(F)c(-c3cccc(Cl)c3Cl)n2)cc2sc(C)nc12 [Example 102] | < 1000 |
| COc1cc(C(=O)NC[C@](O)(c2cc(C3(O)COC3)c(F)c(-c3cc(Cl)c(F)cc3F)n2)C2CC2)cc2cn(C(F)F)nc12 [Example 169] | > 1000 |
| COc1cc(C(=O)NC[C@@](O)(c2ccccc2)c2cc(C(C)(C)O)c(F)c(-c3ccc(F)c(F)c3F)n2)cc2cn(C3CC3)nc12 [Example 84] | < 1000 |
